Assay results: US20260365663A1, “EMOPAMIL-BINDING PROTEIN INHIBITORS AND USES THEREOF” (BIOGEN MA INC., priority 2022, published 2026)

These molecules were tested against T1, EBP (Homo sapiens, UniProt Q15125) (assay: EBP Functional Assay (EBP immunoaffinity LC-MS assay)). Settings: not given.
T1 construct: HEK293T cells were utilized as the source of EBP enzyme; endogenous in cells; host or cells: HEK293T
Type: biochemical
Protocol: The EBP immunoaffinity (IA) LC-MS assay measures the potency of small molecule inhibitors of EBP by quantifying their concentration-dependent changes in the enzyme's substrate and product using liquid chromatography atmospheric pressure chemical ionization multiple reaction monitoring mass spectrometry (LC-APCI MRM MS). HEK293T cells were utilized as the source of EBP enzyme. The enzyme was incubated with the small molecule inhibitors at variable concentrations for 30 min. Deuterated form of EBP substrate, zymosterol-d5 (Avanti Polar Lipids, Cat #700068P-1 mg), was then added and the plate was incubated at 37 °C for 4 h. Finally, the sterol isomers were extracted and injected to LC-APCI MRM MS. MRM transition used for the quantification for both zymosterol and dihydrolathosterol (substrate and product of EBP enzymatic reaction, respectively) is 372.3-203.2, CE 30 and DP 80 in positive ion mode. Percent conversion of the zymosterol-d5 to dehydrolathosterol-d5 was used to derive IC50 curves. Tasin-1 (1′-[(4-Methoxyphenyl)sulfonyl]-4-methyl-1,4′-bipiperidine, CAS 792927-06-1) was used as the reference small molecule inhibitor.
Percent conversion versus the compound concentration data were fit to the following 4-parameter logistic model to generate IC50 curves: […]

T1 sequence (Q15125 whole entry): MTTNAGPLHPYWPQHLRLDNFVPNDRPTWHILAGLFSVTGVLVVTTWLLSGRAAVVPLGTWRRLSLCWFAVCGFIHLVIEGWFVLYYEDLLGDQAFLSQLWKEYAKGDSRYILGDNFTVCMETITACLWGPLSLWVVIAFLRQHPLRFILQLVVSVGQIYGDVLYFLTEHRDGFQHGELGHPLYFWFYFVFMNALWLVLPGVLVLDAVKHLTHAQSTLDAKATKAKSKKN

Row | Structure (SMILES) | IC50
1 | Cc1cc(S(=O)(=O)N2CC3(CC(N4CCC(C)CC4)CO3)C2)n(C)n1 (centres unmarked) [Example 55, 2-((1,3-Dimethyl-1H-pyrazol-5-yl)sulfonyl)-7-(4-methylpiperidin-1-yl)-5-oxa-2-azaspiro[3.4]octane] | 100 to 500 nM
2 | Cn1nc(C(F)(F)F)cc1S(=O)(=O)N1CC2(CC(N3CC4(CCO4)C3)C2)C1 [Example 15, 6-(2-((1-Methyl-3-(trifluoromethyl)-1H-pyrazol-5-yl)sulfonyl)-2-azaspiro[3.3]heptan-6-yl)-1-oxa-6-azaspiro[3.3]heptane] | 500 to 3000 nM
3 | O=S(=O)(c1ccc(F)cc1F)N1CC2(CCC(N3CCOCC3)C2)C1 (centres unmarked) [Example 46, 4-(2-((2,4-Difluorophenyl)sulfonyl)-2-azaspiro[3.4]octan-6-yl)morpholine] | 500 to 3000 nM
4 | N#Cc1cc(F)cc(S(=O)(=O)N2CC3(CC[C@H](N4CCOCC4)C3)C2)c1 [Example 52, (S)-3-Fluoro-5-((6-morpholino-2-azaspiro[3.4]octan-2-yl)sulfonyl)benzonitrile] | 500 to 3000 nM

The next lines start with the values.

Row | IC50 | Structure (SMILES)
5 | < 100 nM | Cc1nc(C(F)(F)F)ccc1S(=O)(=O)N1CC2(CCC(N3CCOCC3)C2)C1 (centres unmarked) [Example 40, 4-(2-((2-Methyl-6-(trifluoromethyl)pyridin-3-yl)sulfonyl)-2-azaspiro[3.4]octan-6-yl)morpholine]
6 | < 100 nM | COc1ccc(S(=O)(=O)N2CC3(CCC(N4CCOCC4)C3)C2)c(C(F)(F)F)n1 (centres unmarked) [Example 39, 4-(2-((6-Methoxy-2-(trifluoromethyl)pyridin-3-yl)sulfonyl)-2-azaspiro[3.4]octan-6-yl)morpholine]
7 | < 100 nM | Cc1ccc(S(=O)(=O)N2CC3(CCC(N4CCOCC4)C3)C2)c(C)c1 (centres unmarked) [Example 45, 4-(2-((2,4-Dimethylphenyl)sulfonyl)-2-azaspiro[3.4]octan-6-yl)morpholine]

Same assay, conditions: HEK293T cells as source of EBP enzyme; zymosterol-d5 substrate; inhibitor 30 min, then 37 °C for 4 h; percent conversion to dehydrolathosterol-d5 by LC-APCI MRM MS; read-out: EBP Functional Assay

Row | Structure (SMILES) | IC50
8 | Cc1nc(C(F)(F)F)ncc1S(=O)(=O)N1CC2(CC(N3CC4(CCO4)C3)C2)C1 [Example 16, 6-(2-((4-Methyl-2-(trifluoromethyl)pyrimidin-5-yl)sulfonyl)-2-azaspiro[3.3]heptan-6-yl)-1-oxa-6-azaspiro[3.3]heptane] | 500 to 3000 nM
9 | Cn1nc(C(F)(F)F)cc1S(=O)(=O)N1CC2(CC(NCC3COC3)C2)C1 [Example 11, 2-((1-Methyl-3-(trifluoromethyl)-1H-pyrazol-5-yl)sulfonyl)-N-(oxetan-3-ylmethyl)-2-azaspiro[3.3]heptan-6-amine] | 100 to 500 nM
10 | Cc1cc(S(=O)(=O)N2CC3(CC[C@@H](N4CCOCC4)C3)C2)n(C)n1 (single isomer, unassigned) [Example 66] | 100 to 500 nM
11 | COc1ccc(S(=O)(=O)N2CC3(CCC(N4CC5(COC5)C4)C3)C2)c(C)n1 (centres unmarked) [Example 30, 6-(2-((6-Methoxy-2-methylpyridin-3-yl)sulfonyl)-2-azaspiro[3.4]octan-6-yl)-2-oxa-6-azaspiro[3.3]heptane] | 500 to 3000 nM
12 | Cc1nc(C(C)(F)F)ccc1S(=O)(=O)N1CC2(CC(N3CC4(COC4)C3)C2)C1 [Example 1, 6-(2-((6-(1,1-Difluoroethyl)-2-methylpyridin-3-yl)sulfonyl)-2-azaspiro[3.3]heptan-6-yl)-2-oxa-6-azaspiro[3.3]heptane] | < 100 nM
13 | Cc1nc(Cl)ccc1S(=O)(=O)N1CC2(CC[C@H](N3CCOCC3)C2)C1 (single isomer, unassigned) [Example 65] | 100 to 500 nM
14 | COCCN(C)C1CCC2(C1)CN(S(=O)(=O)c1ccc(OC)nc1C)C2 (centres unmarked) [Example 32, 2-((6-Methoxy-2-methylpyridin-3-yl)sulfonyl)-N-(2-methoxyethyl)-N-methyl-2-azaspiro[3.4]octan-6-amine] | < 100 nM
15 | CC1CCN(C2CC3(C2)CN(S(=O)(=O)c2ccc(OC(F)F)cc2)C3)CC1 [Example 20, 2-((4-(Difluoromethoxy)phenyl)sulfonyl)-6-(4-methylpiperidin-1-yl)-2-azaspiro[3.3]heptane] | 500 to 3000 nM
16 | Cc1nc(C(C)(F)F)ccc1S(=O)(=O)N1CC2(CC(NCC3CCOCC3)C2)C1 [Example 71, 2-((6-(1,1-difluoroethyl)-2-methylpyridin-3-yl)sulfonyl)-N-((tetrahydro-2H-pyran-4-yl)methyl)-2-azaspiro[3.3]heptan-6-amine] | < 100 nM
17 | Cc1cc(C(F)(F)F)ncc1S(=O)(=O)N1CC2(CC[C@H](N3CCOCC3)C2)C1 (single isomer, unassigned) [Example 63] | 100 to 500 nM
18 | Cc1nc(C(F)(F)F)ncc1S(=O)(=O)N1CC2(CC(NC3CCOCC3)C2)C1 [Example 76, 2-((4-methyl-2-(trifluoromethyl)pyrimidin-5-yl)sulfonyl)-N-(tetrahydro-2H-pyran-4-yl)-2-azaspiro[3.3]heptan-6-amine] | 100 to 500 nM
19 | Cc1nc(C(F)(F)F)ccc1S(=O)(=O)N1CC2(CC[C@@H](N3CCOCC3)C2)C1 (single isomer, unassigned) [Example 60] | < 100 nM
20 | Cc1nc(C(C)(F)F)ccc1S(=O)(=O)N1CC2(CC(N(C)CC3CCOCC3)C2)C1 [Example 75, 2-((6-(1,1-difluoroethyl)-2-methylpyridin-3-yl)sulfonyl)-N-methyl-N-((tetrahydro-2H-pyran-4-yl)methyl)-2-azaspiro[3.3]heptan-6-amine] | 100 to 500 nM
21 | Cc1nc(C(F)(F)F)ccc1S(=O)(=O)N1CC2(CC(NCC3(C)COC3)C2)C1 [Example 9, 2-((2-Methyl-6-(trifluoromethyl)pyridin-3-yl)sulfonyl)-N-((3-methyloxetan-3-yl)methyl)-2-azaspiro[3.3]heptan-6-amine] | < 100 nM
22 | Cc1nc(C(F)(F)F)ncc1S(=O)(=O)N1CC2(CC(N(C)C3COC3)C2)C1 [Example 81, N-methyl-2-((4-methyl-2-(trifluoromethyl)pyrimidin-5-yl)sulfonyl)-N-(oxetan-3-yl)-2-azaspiro[3.3]heptan-6-amine] | 100 to 500 nM
23 | Cc1cnc(S(=O)(=O)N2CC3(CCC(N4CCOCC4)C3)C2)c(C)c1 (centres unmarked) [Example 29, 4-(2-((3,5-Dimethylpyridin-2-yl)sulfonyl)-2-azaspiro[3.4]octan-6-yl)morpholine] | 500 to 3000 nM
24 | Cc1cc(C)c(S(=O)(=O)N2CC3(CC(N4CCOCC4)CO3)C2)c(C)c1 (centres unmarked) [Example 53, 2-(Mesitylsulfonyl)-7-morpholino-5-oxa-2-azaspiro[3.4]octane] | 100 to 500 nM

Second part, the molecule after the results:

Row | IC50 | Structure (SMILES)
25 | 500 to 3000 nM | COc1ncc(C)cc1S(=O)(=O)N1CC2(CC(NC3CC(F)(F)C3)CO2)C1 (centres unmarked) [Example 25, N-(3,3-Difluorocyclobutyl)-2-((2-methoxy-5-methylpyridin-3-yl)sulfonyl)-5-oxa-2-azaspiro[3.4]octan-7-amine]
26 | 100 to 500 nM | Cc1nc(C(F)(F)F)ncc1S(=O)(=O)N1CC2(CC(NCC3CCOCC3)C2)C1 [Example 79, 2-((4-methyl-2-(trifluoromethyl)pyrimidin-5-yl)sulfonyl)-N-((tetrahydro-2H-pyran-4-yl)methyl)-2-azaspiro[3.3]heptan-6-amine]
27 | 100 to 500 nM | Cn1nc(C(F)(F)F)cc1S(=O)(=O)N1CC2(CC(N3CCOCC3)C2)C1 [Example 10, 4-(2-((1-Methyl-3-(trifluoromethyl)-1H-pyrazol-5-yl)sulfonyl)-2-azaspiro[3.3]heptan-6-yl)morpholine]
28 | 500 to 3000 nM | N#Cc1ccc(F)c(S(=O)(=O)N2CC3(CC(NC4CCC(F)(F)CC4)CO3)C2)c1 (centres unmarked) [Example 26, 3-((7-((4,4-Difluorocyclohexyl)amino)-5-oxa-2-azaspiro[3.4]octan-2-yl)sulfonyl)-4-fluorobenzonitrile]
29 | 100 to 500 nM | Cc1nc(C(F)(F)F)ccc1S(=O)(=O)N1CC2(CC[C@H](N3CCOCC3)C2)C1 (single isomer, unassigned) [Example 61]
30 | < 100 nM | Cn1nc(C(F)(F)F)cc1S(=O)(=O)N1CC2(CC(NCC3(C)COC3)C2)C1 [Example 12, 2-((1-Methyl-3-(trifluoromethyl)-1H-pyrazol-5-yl)sulfonyl)-N-((3-methyloxetan-3-yl)methyl)-2-azaspiro[3.3]heptan-6-amine]
31 | 100 to 500 nM | Cn1nc(C(F)(F)F)cc1S(=O)(=O)N1CC2(CCC(N3CCOCC3)C2)C1 (centres unmarked) [Example 35, 4-(2-((1-Methyl-3-(trifluoromethyl)-1H-pyrazol-5-yl)sulfonyl)-2-azaspiro[3.4]octan-6-yl)morpholine]
32 | 500 to 3000 nM | Cn1nc(C(F)(F)F)cc1S(=O)(=O)N1CC2(C[C@@H](N3CCOCC3)CO2)C1 [Example 57, (R)-2-((1-methyl-3-(trifluoromethyl)-1H-pyrazol-5-yl)sulfonyl)-7-morpholino-5-oxa-2-azaspiro[3.4]octane]
33 | 500 to 3000 nM | COCCN(C)C1CCC2(C1)CN(S(=O)(=O)c1cc(C(F)(F)F)nn1C)C2 (centres unmarked) [Example 33, N-(2-Methoxyethyl)-N-methyl-2-((1-methyl-3-(trifluoromethyl)-1H-pyrazol-5-yl)sulfonyl)-2-azaspiro[3.4]octan-6-amine]
34 | 100 to 500 nM | Cc1nc(C(C)(F)F)ccc1S(=O)(=O)N1CC2(CC(NC3CC4(COC4)C3)C2)C1 (centres unmarked) [Example 70, 2-((6-(1,1-difluoroethyl)-2-methylpyridin-3-yl)sulfonyl)-N-(2-oxaspiro[3.3]heptan-6-yl)-2-azaspiro[3.3]heptan-6-amine]
35 | 100 to 500 nM | COc1ccc(S(=O)(=O)N2CC3(CCC(NC4CCC(F)(F)CC4)C3)C2)c(C)n1 (centres unmarked) [Example 31, N-(4,4-Difluorocyclohexyl)-2-((6-methoxy-2-methylpyridin-3-yl)sulfonyl)-2-azaspiro[3.4]octan-6-amine]
